Laboratory results reported in article PMC11951083, “Highly Specific Miniaturized Fluorescent Monoacylglycerol Lipase Probes Enable Translational Research” (Journal of the American Chemical Society, 2025).
Like-named read-outs stand apart in the source and are kept apart here.

Experiments:
Type in all cases: biochemical
[1] = target: T1, MAGL (Homo sapiens, UniProt Q99685); assay: Native MS (RapidFire) 2-AG substrate assay, purified human MAGL; details: purified human MAGL, native MS substrate assay; IC50 of covalent inhibitors time-dependent; read-out: IC50 hMAGL
T1 sequence (Q99685 1-303): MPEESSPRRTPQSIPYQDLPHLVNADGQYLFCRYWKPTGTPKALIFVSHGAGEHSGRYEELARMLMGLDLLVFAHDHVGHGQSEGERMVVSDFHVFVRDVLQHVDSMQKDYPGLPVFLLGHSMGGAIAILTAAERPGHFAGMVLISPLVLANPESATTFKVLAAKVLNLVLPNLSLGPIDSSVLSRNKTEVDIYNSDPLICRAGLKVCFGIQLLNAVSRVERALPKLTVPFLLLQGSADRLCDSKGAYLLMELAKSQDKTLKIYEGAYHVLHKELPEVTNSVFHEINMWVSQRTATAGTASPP
Experimental: (§1) In vitro MAGL Inhibition Assay
(§2) Compounds were profiled for MAGL inhibitory activity by determining the enzymatic activity by following the hydrolysis of the natural substrate 2-arachidonoylglycerol (2-AG), resulting in arachidonic acid, which can be followed by mass spectrometry. The 2-AG assay was carried out in 384 well assay plates (PP, Greiner Cat# 784201) in a total volume of 20 µL. Compound dilutions were made in 100% DMSO (VWR Chemicals 23500.297) in a polypropylene plate in 3-fold dilution steps to give a final concentration range in the assay from 12.5 µM to 0.8 pM. 0.25µL compound dilutions (100% DMSO) were added to 9 µL MAGL in assay buffer (50 mM TRIS (GIBCO, 15567-027), 1 mM EDTA (Fluka, 03690-100 mL), 0.01% (v/v) Tween. After shaking, the plate was incubated for 15 min at RT. To start the reaction, 10 µL 2-arachidonoylglycerol in assay buffer was added. The final concentrations in the assay were 50 pM MAGL and 8 µM 2-arachidonoylglyerol. After shaking and 30 min incubation at RT, the reaction was quenched by the addition of 40µL of ACN containing 4µM of d8-arachidonic acid. The amount of arachidonic acid was traced by an online SPE system (Agilent Rapidfire) coupled to a triple quadrupole mass spectrometer (Agilent 6460). A C18 SPE cartridge (G9205A) was used in an ACN/water liquid setup. The mass spectrometer was operated in negative electrospray mode following the mass transitions 303.1 → 259.1 for arachidonic acid and 311.1 → 267.0 for d8-arachidonic acid. The activity of the compounds was calculated based on the ratio of intensities [arachidonic acid / d8-arachidonic acid]. The lowest IC50 value that can be determined with high accuracy is approximately 0.025 nM.

[2] = target: T2, cMAGL (Macaca fascicularis, UniProt A0A2K5V664); assay: Native MS (RapidFire) 2-AG substrate assay, purified cynomolgus monkey MAGL
T2 sequence (A0A2K5V664 11-297): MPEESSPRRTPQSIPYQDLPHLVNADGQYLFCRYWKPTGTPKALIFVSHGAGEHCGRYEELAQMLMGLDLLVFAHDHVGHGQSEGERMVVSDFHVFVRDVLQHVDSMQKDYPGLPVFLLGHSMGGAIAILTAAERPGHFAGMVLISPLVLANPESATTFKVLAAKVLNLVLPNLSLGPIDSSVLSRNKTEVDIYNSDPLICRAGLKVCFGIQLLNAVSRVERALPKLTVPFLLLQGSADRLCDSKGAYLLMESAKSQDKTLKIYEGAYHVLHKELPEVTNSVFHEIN
Experimental: as §1, §2

[3] = target: T3, mMAGL (Mus musculus, UniProt O35678); assay: Native MS (RapidFire) 2-AG substrate assay, purified mouse MAGL; details: purified mouse MAGL, native MS substrate assay; read-out: IC50 mMAGL
T3 sequence (O35678 1-303): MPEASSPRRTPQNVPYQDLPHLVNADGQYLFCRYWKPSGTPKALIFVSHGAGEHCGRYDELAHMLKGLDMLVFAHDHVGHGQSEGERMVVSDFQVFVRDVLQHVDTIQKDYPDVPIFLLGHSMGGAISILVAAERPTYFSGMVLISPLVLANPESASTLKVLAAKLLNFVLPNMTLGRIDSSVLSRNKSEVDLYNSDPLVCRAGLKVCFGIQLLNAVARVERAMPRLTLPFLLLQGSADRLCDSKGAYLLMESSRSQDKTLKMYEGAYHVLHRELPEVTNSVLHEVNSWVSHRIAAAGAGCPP
Experimental: as §1, §2

[4] = purified cynomolgus monkey MAGL, native MS substrate assay, read-out: IC50 cMAGL

O=C(O[C@H](CO)C(F)(F)F)N1CC2(CC(CC3=C4C=CC=[N+]4[B-](F)(F)n4cccc43)C2)C1 [Compound 1]
IC50 [1]: 0.28 nM
IC50 [2, 4]: 0.87 nM
IC50 [3]: 0.21 nM

O=C(OC(C(F)(F)F)C(F)(F)F)N1CC2(CC(CC3=C4C=CC=[N+]4[B-](F)(F)n4cccc43)C2)C1 [Compound 2]
IC50 [1]: 0.39 nM
IC50 [2, 4]: 0.24 nM
IC50 [3]: 0.33 nM

O=C(OC(C(F)(F)F)C(F)(F)F)N1CC2(CC(CC3=C4C=CC(c5ccc[nH]5)=[N+]4[B-](F)(F)n4cccc43)C2)C1 [Compound 2a]
IC50 [1]: 0.98 nM
IC50 [2, 4]: 0.63 nM
IC50 [3]: 0.79 nM

O=C1CO[C@H]2CCN(C(=O)N3CC4(CC(CC5=C6C=CC=[N+]6[B-](F)(F)n6cccc65)C4)C3)C[C@H]2N1 [Compound 4]
IC50 [1]: 0.94 nM
IC50 [2, 4]: 1.14 nM
IC50 [3]: 1.33 nM

O=C1CO[C@H]2CCN(C(=O)N3CC4(CC(CC5=C6C=CC(c7ccc[nH]7)=[N+]6[B-](F)(F)n6cccc65)C4)C3)C[C@H]2N1 [Compound 4a]
IC50 [1]: 0.14 nM
IC50 [2]: 0.2 nM
IC50 [3]: 0.18 nM

O=C(N1CC2(CC(CC3=C4C=CC=[N+]4[B-](F)(F)n4cccc43)C2)C1)N1CC2(CC(n3cnc(C4CC4)n3)C2)C1 [Compound 5]
IC50 [1]: 0.58 nM
IC50 [2]: 0.5 nM
IC50 [3]: 1.03 nM
